The record followed here is patent US20060229322A1, “Anhydrous crystalline form of valacyclovir hydrochloride” (priority 2002, published 2006).

A short description of data set [1]: Storage stability of the anhydrous crystalline form at room temperature. It counts as physicochemical. The text has this: (§1) Such stability is vital for a pharmaceutical since stocks thereof may be stored for long periods prior to use. […] The forms of the invention are therefore suitable for transport in countries where ambient temperatures are exceptionally high.

Data set [2] is classed as physicochemical.
Source text: as §1

Counter-ions that a name gives are not always drawn.

As to `CC(C)[C@H](N)C(=O)OCCOCn1cnc2c(=O)[nH]c(N)nc21` [valacyclovir hydrochloride], the “time shown to be stable” value in data set [1] is “over 3 years”. Besides, the “time for which stability is exhibited when heated” value in data set [2] is recorded as “over 550 hours”.
